From patent publication US20210085699A1, “COMBINATION THERAPIES FOR TREATING CANCERS” (priority 2018, published 2021)

How the values were obtained:
[1] = system: human CLL cells from patients; settings: patient cells ex vivo; reference (17); cited from earlier work
[2] = system: splenocytes, live white blood cells (CD45+ Ter119-PI−); experiment: In vivo DIDS treatment of AID-null mice followed by ex vivo ionizing radiation of splenocytes; design: species or system mouse
Protocol: Whether DIDS could block repair of AID-independent double-strand breaks (frank or single-strand staggered double-strand breaks) in vivo was determined. A common way to generate double-strand breaks is via ionizing radiation (1, 38, 39). For this, AID-null mice were treated with different concentrations of DIDS (0, 5, or 10 mg/kg) for eight hours, and then harvested splenocytes and treated them with different doses of IR (0, 1, 5, 10 Gy). Eighteen hours after IR, the numbers of live white blood cells (CD45+ Ter119-PI−) were measured by flow cytometry.

MEC1 cells [3] = experiment: Ex vivo growth/survival of MEC1 cells; assay type: cell-based, human
[4] = system: AID knock-out MEC1 (AKO) cells; experiment: AKO cell xenograft in NRG mice treated with DIDS; assay type: in vivo, human; settings: DIDS 50 mg/kg for two weeks
Protocol: (§1) Theoretically, this would result in a truncated, non-functional AID, which was termed AID knock-out MEC1 (AKO) cells. To test the dependence of DIDS on AID, AKO cells were treated with DIDS and compared their growth with that of parental MEC1 cells. […] To test whether AID sufficiency was required for DIDS efficacy in vivo, AKO and parental cells were xenografted in NRG™ mice, and mice were treated with 50 mg/kg of DIDS for two weeks. […] Thus, the therapeutic effect of DIDS in MEC1 xenografts depended on AID.
(§2) Human cancer cell lines were xenografted into NRG mice in the following way: Cells grown in flasks were given fresh media the night before xenograftment and seeded at 10^6 cells per mL. The next day, the cells were washed twice with DPBS without calcium or magnesium and resuspended to 1-2×10^8 cells per mL of DPBS at room temperature and immediately injected via tail vein at 100 μL per mouse. The cells were given 7-10 days to fully xenograft, after which tumor load in the blood was assessed via flow cytometry (FACSCaliber II) for human CD19+ cells (Antibody cat no. 555413, BD Parmingen). […] Upon euthanasia, the spleen and the bone marrow were harvested and stained for human CD19, and the cells were measured by flow cytometry on the FACSCaliber II. […]

[5] = system: AID knock-out MEC1 (AKO) cells; experiment: Ex vivo growth of AID knock-out MEC1 (AKO) cells; assay type: cell-based, human; settings: DIDS vs vehicle
Protocol: as §1
AID knock out (AKO) MEC1 cell lines were developed by targeting Exon 2 of AID with the following guide RNAs: CTTGATGAACCGGAGGAAG (SEQ ID NO: 1), GTCCGCTGGGCTAAGGGTC (SEQ ID NO: 2), GTGCTACATCCTTTTCAC (SEQ ID NO: 3). These guides were cloned into the Cas9-EGFP vector, pX330 (Addgene, Cat. no. 66582). These vectors were nucleofected into MEC1 cells using Amaxa Cell Line Nucleofector Kit V using program X-001, and according to manufacturer's instructions (Lonza, Cat. no. VACA-1003). Nucleofected cells were sorted for GFP positivity and cloned by limited dilution to generate AKO cell lines. Two independent AKO cell lines (14-1 and 14-3) were confirmed for AID nullizygosity using both genomic and transcript PCRs.

[6] = system: AID-positive neoplastic cell lines; settings: tissue culture; reference (17); cited from earlier work
MEC1 cells [7] = experiment: MEC1 xenograft in NRG mice, tumor burden by human CD19+ cells (flow cytometry); assay type: in vivo
Protocol: (§3) To test that hypothesis, the two cell lines were tested for 2DG sensitivity in vivo: immunodeficient NOD.Cg-Rag1^tm1MomIl2rg^tm1Wjl/SzJ (NRG™) mice were xenografted with either MEC1 or CCRF-SB cells, and the mice were then treated with 200 μL of 600 mM 2DG or glucose I.P. three times per week for two weeks. Both MEC1 and CCRF-SB cells migrate to the spleen and bone marrow, and since these mice […] CD19+ B-cells, the tumor burden can be measured terminally in these organs by anti-human CD19 staining via flow cytometry after euthanasia at the end of the treatment period.
Because DIDS was effective in reducing numbers of MEC1 B-cells ex vivo, its effectiveness was tested in vivo. […] MEC1 cells were xenografted into immunodeficient NRG™ mice for two weeks, and mice were then treated either with DIDS at 50 mg/kg or with a 0.1 M potassium bicarbonate/PBS vehicle, once per week for an additional two weeks. NRG™ mice were used because they were deficient in CD19 cells, allowing quantification of MEC1 B-cells by staining spleen cells for human CD19, as the spleen is a homing organ for MEC1 B-cells, all of which are positive for CD19.
Mice were treated I.P. three times weekly for two weeks. 1) mice were dosed I.P. with 10 mg/kg DIDS, a fifth of the dose required to elicit an effect in vivo (FIG. 4D); 2) mice were treated I.P. with 220 mg/kg of 2DG or glucose; a third of the dose of 2DG required for an effect (FIG. 3C); 3) mice were treated with both DIDS and 2DG, at the same doses used in the first two groups; 4) as a positive control, mice were treated with fludarabine, a compound frequently used to treat CLL, at 35 mg/kg, a dose commonly used to elicit an effect; and 5) as a negative control, mice were treated with vehicle consisting of glucose in PBS (41). Following the 2-week treatment period, bone marrow and spleens were assessed for tumor burden, by determining the percentages of human CD19-positive cells via flow cytometry (FIG. 5C).
Human cancer cell lines were xenografted into NRG mice in the following way: Cells grown in flasks were given fresh media the night before xenograftment and seeded at 10^6 cells per mL. The next day, the cells were washed twice with DPBS without calcium or magnesium and resuspended to 1-2×10^8 cells per mL of DPBS at room temperature and immediately injected via tail vein at 100 μL per mouse. The cells were given 7-10 days to fully xenograft, after which tumor load in the blood was assessed via flow cytometry (FACSCaliber II) for human CD19+ cells (Antibody cat no. 555413, BD Parmingen). Mice with similar tumor loads were assigned to different treatment groups to decrease bias and ensure more even tumor load across treatments. Mice were treated as described in the Results section for two weeks unless otherwise indicated. Upon euthanasia, the spleen and the bone marrow were harvested and stained for human CD19, and the cells were measured by flow cytometry on the FACSCaliber II. Analysis of the flow data was done by Flowjo version 8.8.7 (BD Pharmingen).
Xenografts were done as follows: NOD. Rag1−/− IL-2rg−/− (NRG) mice obtained from the Jackson Laboratory were xenografted for one to two weeks with Non Hogdkin's Leukemia CCRFSB, Chronic lymphocytic leukemia MEC1 cells or MEC1 cells carrying the luciferase gene (MEC1_LUC). Mice were then randomly assigned to treatment or vehicle cohort, and treated for two weeks.

TM00921 = experiment: PDX lung carcinoma TM00921 xenografted in NSG mice, 2DG vs glucose; assay type: in vivo, human; settings: 200 μL of 600 mM 2DG I.P. three times weekly, 4 weeks, glycolysis-dependent PDX
Source text: (§4) The effects of 2DG in human lung carcinoma PDX (patient-derived xenograft) models were eventuated. While it is understood that 2DG primarily affects glycolysis, studies have shown that 2DG can interfere with other systems, such as the cell cycle, independently of its effects on metabolism (8, 32, 33). Changes in the cell cycle would affect the proliferation of cancer cells, and would ultimately influence tumor growth. To test whether 2DG affects glycolysis independently of proliferation, two PDX human lung carcinomas (TM00244 and TM00921) with similar growth kinetics (FIG. 2A) but differing in the use of glycolytic pathways (Table 1) were tested.
(§5) Tumors from these two carcinomas were xenografted into immunodeficient NOD.Scid.IL2R gamma null (NSG™) mice, and, after tumors of a measurable size (>50 mm^3) were observed, mice of each model were treated with 200 μL of either 600 mM 2DG or glucose three times weekly via I.P. injection.
(§6) Patient-derived xenograft (PDX) tumors were obtained from the JAX PDX Resource. Tumor fragments were minced separately and xenografted subcutaneously in an NSG mouse to establish P1. Upon growth of the tumor fragment, the tumor was harvested, minced, and xenografted in multiple mice to establish P2 mice. All experiments were conducted on P2 or higher mice that arose from engraftment from one of multiple tumor fragments.

thymic lymphomas = experiment: 2DG I.P. in Trp53−/− mouse model of thymic lymphoma; assay type: in vivo
Protocol: Next, a more homogeneous and acute spontaneously arising lymphoma was tested. In addition, the extent to which 2DG could affect a purely T-cell lymphoma was tested. To meet all of these criteria, a classic mouse model of T-cell cancer, the p53-deficient mouse (31) was used. […] To test the effect of 2DG on these thymic lymphomas, […].

[8] = system: spontaneously arising lymphomas; experiment: 2DG in drinking water, spontaneous lymphomas of SJL.CD8a−/− mice; assay type: in vivo, mouse
Source text: To test the extent to which inhibition of glycolysis by 2DG alleviated these spontaneously arising lymphomas, a cohort of SJL.CD8a−/− female mice were aged to […] of age and were monitored for signs of lymphoma development. Visible growth was most evident in cervical lymph nodes and in some cases in spleens (indicated by arrows, FIG. 1A). Once tumors were sufficiently large to palpate, mice were placed on water with 6 g/L of dissolved 2DG provided ad libitum and monitored weekly for tumor reduction. […] Photographs of the tumors were taken weekly to document disease regression, and the time points, in weeks, at which the tumors visibly shrank or, later, reemerged, were recorded.
Female SJL.CD8a−/− mice were obtained from the Jackson Laboratory. Mice were aged and checked weekly for splenic or lymphatic tumors. […] Tumors were monitored and photographed weekly for signs of disease regression or progression.
SJL.CD8a−/− female mice were aged and monitored for signs of tumor development weekly after reaching 6 months of age. Tumors were found on mice in between 7 to 12 months of age. Once tumors had reached a clearly visible size, the mice were given water with 6 g/L of dissolved 2DG provided ad libitum. This concentration of 2DG in the water supplied the mice with a daily dose of approximately 960 mg/kg of 2DG. Mice were monitored weekly to determine changes in tumor mass. Photographs of the tumors were taken weekly to gauge whether the tumor was shrinking, expanding, or maintaining their size and to provide an estimate of the overall health of the mice. Treatments lasted for 11 weeks or until the tumors returned and mice became too sick to continue in the study. The treatment of one mouse was carried out to week 16 to determine what, if any, side effects would occur with prolonged 2DG exposure. […] Dates on which tumor shrinkage was observed, as well as dates on which tumor reemergence was observed, were recorded.

TM00244 = experiment: PDX lung carcinoma TM00244 xenografted in NSG mice, 2DG vs glucose; assay type: in vivo, human; settings: 200 μL of 600 mM 2DG I.P. three times weekly, 4 weeks, glycolysis-independent PDX
Source text: as §4, §5, §6

CCRF-SB cells = experiment: CCRF-SB xenograft in NRG mice, tumor burden by human CD19+ cells; assay type: in vivo; settings: 200 μL of 600 mM 2DG I.P. three times per week for two weeks, vs glucose
Protocol: as §3, §2

[9] = one mouse, 2DG 6 g/L in water carried out to week 16
[10] = 200 μL of 600 mM 2DG I.P. three times per week for two weeks, vs glucose

## O=S(=O)(O)c1cc(N=C=S)ccc1/C=C/c1ccc(N=C=S)cc1S(=O)(=O)O [DIDS, 4,4′-Diisothiocyano-2,2′-stilbenedisulfonic acid]
[1]
  targeting of AID-positive vs AID-negative human CLL cells: targeted AID-positive, but not AID-negative, human CLL cells
[2]; DIDS 0, 5 or 10 mg/kg for eight hours in AID-null mice, IR 0, 1, 5, 10 Gy ex vivo, eighteen hours after IR
  survival of cells after IR: in the presence of DIDS, the effect is significantly greater
[2]; IR 10 Gy, DIDS 5 or 10 mg/kg
  cell ablation at 10 Gy, normalized to 0 mg/Kg DIDS: even a tenth of the dose of DIDS can synergistically enhance the severity of cell ablation
MEC1 cells [3]; DIDS 0.05 mM, 5 days, 2×10^5 cells
  cytotoxic effect on MEC1 B-cells: Cytotoxic effects of DIDS on MEC1 B-cells were seen as early as 5 days
MEC1 cells [3]; DIDS 0.1 and 0.2 mM, after 5 days
  cytotoxic effect on MEC1 B-cells: significant effect was observed
MEC1 cells [3]; DIDS alone, titrated, day 2
  cell numbers: reduction of cell numbers as the concentration of DIDS was increased
[4]
  spleen weights, AKO vs parental MEC1: AKO cells were more resistant to DIDS
  tumor burden by percentages of human CD19 cells, AKO vs parental MEC1: AKO cells were more resistant to DIDS
[5]
  growth rate of AKO cells: grew at a similar rate regardless of whether the cells were treated with vehicle or DIDS
[6]
  targeting of AID-positive neoplastic cell lines: could specifically target AID-positive neoplastic cell lines in tissue culture
MEC1 cells [7]; DIDS 50 mg/kg once per week for two weeks, vs vehicle
  mice showing significant (p=0.001) reduction in number of MEC1 cells in the spleen: 10/11
MEC1 cells [7]; FIG. 10 legend, MEC1 or MEC1 LUC, DIDS 50 mg/kg for two weeks
  tumor burden in vivo (luciferase imaging, flow cytometry of bone marrow and spleen): a high dose of DIDS is required to reduce tumor burden in vivo

## OCC1O[C@H](O)C[C@@H](O)[C@@H]1O (mixture of isomers) [2DG, 2-deoxy-D-glucose]
TM00921
  tumor volume: significantly smaller tumor volume
Thymic lymphomas; 2DG 670 mg/kg I.P.
  duration of inactivity upon injection: 10 to 60 min
Thymic lymphomas; 2DG 670 mg/kg I.P. three times weekly from 14 weeks of age for 10 weeks, vs glucose
  protection from developing neoplasms (survival curve): significantly protected from developing neoplasms
Thymic lymphomas; 2DG 670 mg/kg I.P. three times weekly, vs glucose-treated mice
  weight gain: lower weight gain compared to glucose-treated mice, although the difference did not achieve significance
MEC1 cells [3]; 2DG 0.2 mM alone, 48 hours
  effect on MEC1 cell numbers: does not have an effect on its own
[8]; 2DG 6 g/L in drinking water, at any time during treatment
  adverse side effects by gross observation (weight loss, lethargy, lack of grooming): no adverse side effects of this treatment were observed
[8]; 2DG 6 g/L in drinking water, despite continuation of treatment
  time within which tumors returned: 5-11 weeks
[8]; 2DG 6 g/L in drinking water, treatment continued
  mice of the six responders in which tumors returned: four
[8]; 2DG 6 g/L in drinking water, N=7
  treatment time at which tumor regression was evident: two to three
[8]; FIG. 1A legend, 2DG 6 g/L in drinking water
  appearance of greatly enlarged spleen (representative mouse): returned to normal appearance after two weeks of treatment
[8]; FIG. 1B legend, after 5-11 weeks of 2DG treatment, N=7
  fraction of mice with tumor resurgence: approximately ¾
[8]; [9]
  adverse effects with prolonged 2DG exposure: no adverse effects were noted
  tumor return under prolonged treatment: This tumor never returned
TM00244
  tumor size: no difference in tumor size
CCRF-SB cells
  tumor burden (human CD19+ cells) in spleens or bone marrow: no significant response to 2DG
MEC1 cells [7]; 2DG alone 220 mg/kg I.P. three times weekly for two weeks
  tumor burden (% hCD19+) in bone marrow: elicited as much effect as the combination treatment
MEC1 cells [7]; [10]
  tumor burden (human CD19+ cells) in bone marrow: significant reductions in numbers
  tumor burden (human CD19+ cells) in spleen, sensitivity to 2DG: those in the spleen did not
